Data taken from paper PMC10819243 (Pharmaceutics, 2024).
Where two headings read alike, the source gives them in different places.

Assays:
HeLa [1] = details: most active derivatives published earlier; read-out: Cell Line, IC50 [ μM] HeLa; cited from earlier work
KB [2] = details: most active derivatives published earlier; read-out: Cell Line, IC50 [ μM] KB; cited from earlier work
MCF-7 [3] = details: most active derivatives published earlier; read-out: Cell Line, IC50 [ μM] MCF-7; cited from earlier work
HeLa [4] = assay: MTT assay, HeLa; assay type: cell-based; details: for IC50: Homo sapiens, MTT assay, HeLa cervix carcinoma, (±s) standard deviation; for Selectivity Index HeLa: IC50 for normal cell line (HDF)/IC50 for HeLa
KB [5] = assay: MTT assay, KB; assay type: cell-based; details: for IC50: Homo sapiens, MTT assay, KB nasopharynx carcinoma, (±s) standard deviation; for Selectivity Index KB: IC50 for normal cell line (HDF)/IC50 for KB
MCF-7 [6] = assay: MTT assay, MCF-7; assay type: cell-based; details: for IC50: Homo sapiens, MCF7, MTT assay, MCF-7 breast carcinoma, (±s) standard deviation; for Selectivity Index MCF-7: IC50 for normal cell line (HDF)/IC50 for MCF-7
A-549 = assay: MTT assay, A-549; assay type: cell-based; details: for IC50: Homo sapiens, A549, MTT assay, A-549 lung carcinoma, (±s) standard deviation; for Selectivity Index A-549: IC50 for normal cell line (HDF)/IC50 for A-549
[7] = system: HDF (normal fibroblast cell line); assay: MTT assay, HDF; assay type: cell-based, human; details: for IC50: MTT assay, HDF normal fibroblast cell line, (±s) standard deviation
[8] = system: HeLa, KB, MCF-7, A-549 and HDF cell lines; assay: MTT assay, statements over several tested cell lines; assay type: cell-based
U-87MG cells = assay: Apoptosis assay (DNA fragmentation), U-87MG; assay type: cell-based
From the text: (§1) The necrosis process induced by all the tested compounds was very small.

[9] = system: U-87MG, MCF-7, and HeLa cancer cell lines; assay: Apoptosis assay, all cancer cell lines; assay type: cell-based
From the text: as §1

[10] = ratio of IC50 values vs oleanolic acid (1)
[11] = summary over the tested cell lines, read-out: IC50 values for the tested cell lines (range or summary)

## COC(=O)C12CCC(C)(C)CC1C1C(=NOC(=O)c3ccccc3[N+](=O)[O-])CC3C4(C)CCC(OC(C)=O)C(C)(C)C4CCC3(C)C1(C)CC2 (stereo not shown) [8e [22]]
HeLa [1]
  IC50: 9.84 µM
KB [2]
  IC50: > 10 µM
MCF-7 [3]
  IC50: 9.28 µM

## COC(=O)[C@]12CCC(C)(C)CC1C1=CCC3[C@@]4(C)CC/C(=N\OC(=O)c5cc([N+](=O)[O-])cc([N+](=O)[O-])c5)C(C)(C)C4CC[C@@]3(C)[C@]1(C)CC2 (stereo partly shown) [Compound 5g, 3-(3′,5′-Dinitro)benzoxyiminoolean-12-en-28-oic acid methyl ester]
HeLa [4]
  IC50: 4.19 µM
  Selectivity Index HeLa: 1.48
HeLa [4]; [10]
  fold as active as OA (1), HeLa: ~3 fold
KB [5]
  IC50: 4.61 µM
  Selectivity Index KB: 1.35
KB [5]; [10]
  fold as active as OA (1), KB: 3.2 fold
MCF-7 [6]
  IC50: 5.18 µM
  Selectivity Index MCF-7: 1.20
MCF-7 [6]; [10]
  fold as active as OA (1), MCF-7: ~3 fold
A-549
  IC50: 4.82 µM
  Selectivity Index A-549: 1.29
A-549; [10]
  fold as active as OA (1), A-549: ~2 fold
[7]; Homo sapiens, Fibroblast
  IC50: 6.22 µM
[7]; ratio of IC50 values vs oleanolic acid (1), normal cell line
  fold as active as OA (1), HDF: ~3 fold
[8]; [11]
  IC50: 4.19 to 8.98 µM
U-87MG cells; 0.1 µg/mL
  increase in DNA fragmentation: 2.5 fold
U-87MG cells; 1.0 µg/mL
  increase in DNA fragmentation: 4.2 fold

## COC(=O)[C@]12CCC(C)(C)CC1C1=CC(=O)C3[C@@]4(C)CC/C(=N\OC(=O)c5cc([N+](=O)[O-])cc([N+](=O)[O-])c5)C(C)(C)C4CC[C@@]3(C)[C@]1(C)CC2 (stereo partly shown) [Compound 6g, 3-(3′,5′-Dinitro)benzoxyimino-11-oxoolean-12-en-28-oic acid methyl ester]
HeLa [4]
  IC50: 6.11 µM
  Selectivity Index HeLa: 1.19
KB [5]
  IC50: 8.98 µM
  Selectivity Index KB: 0.81
MCF-7 [6]
  IC50: 6.62 µM
  Selectivity Index MCF-7: 1.10
A-549
  IC50: 5.39 µM
  Selectivity Index A-549: 1.34
[7]; Homo sapiens, Fibroblast
  IC50: 7.27 µM
[8]; [11]
  IC50: 5.39 to 8.98 µM
[9]; 0.1 µg/mL
  increase in induction of apoptosis: 1.7 fold
[9]; 1.0 µg/mL
  increase in induction of apoptosis: 2.4 fold
[9]; 10 µg/mL
  increase in induction of apoptosis: 2.9 fold

## CCC(=O)ON=C1C[C@@H]2[C@@]3(C)CC[C@H](OC(C)=O)C(C)(C)[C@@H]3CC[C@@]2(C)[C@]2(C)CC[C@@]3(C(=O)OC)CCC(C)(C)C[C@H]3[C@@H]12 [8d [22]]
HeLa [1]
  IC50: 1.87 µM
KB [2]
  IC50: 0.72 µM
MCF-7 [3]
  IC50: 2.13 µM

## COC(=O)C12CCC(C)(C)CC1C1C(=NOC(=O)CBr)CC3C4(C)CCC(OC(C)=O)C(C)(C)C4CCC3(C)C1(C)CC2 (stereo not shown) [8c [22]]
HeLa [1]
  IC50: 4.41 µM
KB [2]
  IC50: 4.9 µM
MCF-7 [3]
  IC50: 3.76 µM

## CC1(C)CCC2(C(=O)N3CCOCC3)CCC3(C)C(=CCC4C5(C)CCC(=NO)C(C)(C)C5CCC43C)C2C1 (stereo not shown) [Compound 4]
HeLa [4]
  IC50: 8.72 µM
  Selectivity Index HeLa: 1.60
KB [5]
  IC50: 8.72 µM
  Selectivity Index KB: 1.60
MCF-7 [6]
  IC50: 7.42 µM
  Selectivity Index MCF-7: 1.88
A-549
  IC50: 7.29 µM
  Selectivity Index A-549: 1.91
[7]; Homo sapiens, Fibroblast
  IC50: 13.9 µM
[8]; [11]
  IC50: 7 to 8 µM
HeLa [1]
  IC50: 1.8 µM
KB [2]
  IC50: 1.74 µM
MCF-7 [3]
  IC50: 1.6 µM

## COC(=O)C12CCC(C)(C)CC1C1=CC(=O)C3C4(C)CCC(=NO)C(C)(C)C4CCC3(C)C1(C)CC2 (stereo not shown) [Compound 3]
HeLa [4]
  IC50: 125 µM
  Selectivity Index HeLa: 0.49
KB [5]
  IC50: 60.3 µM
  Selectivity Index KB: 1.01
MCF-7 [6]
  IC50: 48.4 µM
  Selectivity Index MCF-7: 1.26
A-549
  IC50: 63 µM
  Selectivity Index A-549: 0.97
[7]; Homo sapiens, Fibroblast
  IC50: 61 µM
HeLa [1]
  IC50: 5.03 µM
KB [2]
  IC50: 6.19 µM
MCF-7 [3]
  IC50: > 10 µM

## COC(=O)[C@]12CCC(C)(C)CC1C1=CC(=O)C3[C@@]4(C)CC/C(=N\OC(=O)c5ccccc5)C(C)(C)C4CC[C@@]3(C)[C@]1(C)CC2 (stereo partly shown) [Compound 6d, 3-Benzoxyimino-11-oxoolean-12-en-28-oic acid methyl ester]
HeLa [4]
  IC50: 28.4 µM
  Selectivity Index HeLa: 1.48
KB [5]
  IC50: 27.2 µM
  Selectivity Index KB: 1.54
MCF-7 [6]
  IC50: 27.5 µM
  Selectivity Index MCF-7: 1.53
A-549
  IC50: 27.8 µM
  Selectivity Index A-549: 1.51
[7]; Homo sapiens, Fibroblast
  IC50: ~42 µM
[7]
  IC50: 42 µM
[8]; one approximate value or range for the four cancer cell lines, apart from HDF, read-out: IC50 for HeLa, KB, MCF-7, and A-549 cancer cell lines
  IC50: ~27 µM

## CC1(C)CC[C@]2(C(=O)N3CCOCC3)CC[C@]3(C)C(=CCC4[C@@]5(C)CC/C(=N\OC(=O)CCl)C(C)(C)C5CC[C@]43C)C2C1 (stereo partly shown) [Compound 7b, 3-Chloroacetoxyiminoolean12-en-28-oic acid morpholide]
HeLa [4]
  IC50: 19.2 µM
  Selectivity Index HeLa: 2.03
KB [5]
  IC50: 19.8 µM
  Selectivity Index KB: 1.97
MCF-7 [6]
  IC50: 15.6 µM
  Selectivity Index MCF-7: 2.50
A-549
  IC50: 19.3 µM
  Selectivity Index A-549: 2.02
[7]; Homo sapiens, Fibroblast
  IC50: 39.1 µM
[8]; [11]
  IC50: 15 to 40 µM

## COC(=O)C12CCC(C)(C)CC1C1C(=NOC(=O)CCl)CC3C4(C)CCC(OC(C)=O)C(C)(C)C4CCC3(C)C1(C)CC2 (stereo not shown) [8b [22]]
HeLa [1]
  IC50: 9.19 µM
KB [2]
  IC50: 9.42 µM
MCF-7 [3]
  IC50: 7.26 µM

## CC1(C)CC[C@]2(C(=O)N3CCOCC3)CC[C@]3(C)C(=CCC4[C@@]5(C)CC/C(=N\OC(=O)c6cc([N+](=O)[O-])cc([N+](=O)[O-])c6)C(C)(C)C5CC[C@]43C)C2C1 (stereo partly shown) [Compound 7g, 3-(3′,5′-Dinitro)benzoxyiminoolean-12-en-28-oic acid morpholide]
HeLa [4]
  IC50: 6.24 µM
  Selectivity Index HeLa: 1.47
KB [5]
  IC50: 6.01 µM
  Selectivity Index KB: 1.52
MCF-7 [6]
  IC50: 7.27 µM
  Selectivity Index MCF-7: 1.26
A-549
  IC50: 6.52 µM
  Selectivity Index A-549: 1.40
[7]; Homo sapiens, Fibroblast
  IC50: 9.16 µM
[8]; [11]
  IC50: 4.19 to 8.98 µM
[9]; 0.1 µg/mL
  increase in induction of apoptosis: 2.3 fold
[9]; 1.0 µg/mL
  increase in induction of apoptosis: 2.6 fold
[9]; 10 µg/mL
  increase in induction of apoptosis: 3.8 fold

## CC(=O)O/N=C1\CC[C@@]2(C)C(CC[C@]3(C)C2CC=C2C4CC(C)(C)CC[C@]4(C(=O)N4CCOCC4)CC[C@]23C)C1(C)C (stereo partly shown) [Compound 7a, 3-Acetoxyiminoolean-12-en-28-oic acid morpholide]
HeLa [4]
  IC50: 82.2 µM
  Selectivity Index HeLa: 1.41
KB [5]
  IC50: 81.5 µM
  Selectivity Index KB: 1.42
MCF-7 [6]
  IC50: 81 µM
  Selectivity Index MCF-7: 1.43
A-549
  IC50: 84.9 µM
  Selectivity Index A-549: 1.37
[7]; Homo sapiens, Fibroblast
  IC50: 116 µM
[8]; over the tested cell lines
  times less active than mother OA (1): about 8 fold
[8]; [11]
  IC50: ≥ 80 µM
